Data as given in ChEMBL document CHEMBL1151757, “Synthesis, radiosynthesis, and biological evaluation of fluorine-18-labeled 2beta-carbo(fluoroalkoxy)-3beta-(3'-((Z)-2-haloethenyl)phenyl)nortropanes: candidate radioligands for in vivo imaging of the serotonin transporter with positron emission tomography” (J Med Chem, 2008).

What was measured:
[1] = Ratio of drug uptake in medulla to cerebellum in anesthetized cynomolgus monkey after 6.5 mins postinjection; assay type: ADME, organism-based, Macaca fascicularis; settings: in vivo
[2] = Drug uptake in anesthetized cynomolgus monkey brain occipital lobe after 12.5 mins postinjection; assay type: ADME, organism-based, Macaca fascicularis; settings: in vivo
[3] = Drug uptake in anesthetized cynomolgus monkey brain frontal lobe after 185 mins postinjection; assay type: ADME, organism-based, Macaca fascicularis; settings: in vivo
[4] = Ratio of drug uptake in caudate to cerebellum in anesthetized cynomolgus monkey after 185 mins postinjection; assay type: ADME, organism-based, Macaca fascicularis; settings: in vivo
[5] = Drug uptake in anesthetized cynomolgus monkey brain cerebellum after 55 mins postinjection; assay type: ADME, organism-based, Macaca fascicularis; settings: in vivo
[6] = Drug uptake in anesthetized cynomolgus monkey brain cerebellum after 125 mins postinjection; assay type: ADME, organism-based, Macaca fascicularis; settings: in vivo
[7] = Drug uptake in anesthetized cynomolgus monkey brain cerebellum after 145 mins postinjection; assay type: ADME, organism-based, Macaca fascicularis; settings: in vivo
[8] = Drug uptake in anesthetized cynomolgus monkey brain occipital lobe after 197.5 mins postinjection; assay type: ADME, organism-based, Macaca fascicularis; settings: in vivo
[9] = Drug uptake in anesthetized cynomolgus monkey brain frontal lobe after 187.5 mins postinjection; assay type: ADME, organism-based, Macaca fascicularis; settings: in vivo, 3.125 h
Putamen [10] = assay: Drug uptake in anesthetized cynomolgus monkey brain putamen after 182.5 mins postinjection; assay type: ADME, organism-based, Macaca fascicularis; settings: in vivo
Putamen [11] = assay: Drug uptake in anesthetized cynomolgus monkey brain putamen after 187.5 mins postinjection; assay type: ADME, organism-based, Macaca fascicularis; settings: in vivo, 3.125 h
Putamen [12] = assay: Drug uptake in anesthetized cynomolgus monkey brain putamen after 192.5 mins postinjection; assay type: ADME, organism-based, Macaca fascicularis; settings: in vivo
Putamen [13] = assay: Drug uptake in anesthetized cynomolgus monkey brain putamen after 202.5 mins postinjection; assay type: ADME, organism-based, Macaca fascicularis; settings: in vivo, 3.375 h
Putamen [14] = assay: Drug uptake in anesthetized cynomolgus monkey brain putamen after 207.5 mins postinjection; assay type: ADME, organism-based, Macaca fascicularis; settings: in vivo
[15] = Drug uptake in awake rhesus monkey brain frontal lobe after 13.5 mins postinjection; assay type: ADME, organism-based, Macaca mulatta; settings: in vivo, 0.225 h
[16] = Drug uptake in awake rhesus monkey brain frontal lobe after 25 mins postinjection; assay type: ADME, organism-based, Macaca mulatta; settings: in vivo
[17] = Drug uptake in awake rhesus monkey brain frontal lobe after 65 mins postinjection; assay type: ADME, organism-based, Macaca mulatta; settings: in vivo
[18] = Drug uptake in awake rhesus monkey brain medulla after 10.5 mins postinjection; assay type: ADME, organism-based, Macaca mulatta; settings: in vivo, 0.175 h
Midbrain [19] = assay: Drug uptake in anesthetized cynomolgus monkey brain midbrain after 182.5 mins postinjection; assay type: ADME, organism-based, Macaca fascicularis; settings: in vivo
Midbrain [20] = assay: Drug uptake in anesthetized cynomolgus monkey brain midbrain after 187.5 mins postinjection; assay type: ADME, organism-based, Macaca fascicularis; settings: in vivo, 3.125 h
Midbrain [21] = assay: Drug uptake in anesthetized cynomolgus monkey brain midbrain after 192.5 mins postinjection; assay type: ADME, organism-based, Macaca fascicularis; settings: in vivo
Midbrain [22] = assay: Drug uptake in anesthetized cynomolgus monkey brain midbrain after 202.5 mins postinjection; assay type: ADME, organism-based, Macaca fascicularis; settings: in vivo, 3.375 h
Midbrain [23] = assay: Drug uptake in anesthetized cynomolgus monkey brain midbrain after 207.5 mins postinjection; assay type: ADME, organism-based, Macaca fascicularis; settings: in vivo
[24] = Drug uptake in awake rhesus monkey brain medulla after 55 mins postinjection; assay type: ADME, organism-based, Macaca mulatta; settings: in vivo
[25] = Drug uptake in awake rhesus monkey brain medulla after 85 mins postinjection; assay type: ADME, organism-based, Macaca mulatta; settings: in vivo
[26] = Drug uptake in awake rhesus monkey brain medulla after 95 mins postinjection; assay type: ADME, organism-based, Macaca mulatta; settings: in vivo
[27] = Drug uptake in awake rhesus monkey brain pons after 7.5 mins postinjection; assay type: ADME, organism-based, Macaca mulatta; settings: in vivo, 0.125 h
[28] = Drug uptake in awake rhesus monkey brain pons after 25 mins postinjection; assay type: ADME, organism-based, Macaca mulatta; settings: in vivo
[29] = Drug uptake in awake rhesus monkey brain pons after 65 mins postinjection; assay type: ADME, organism-based, Macaca mulatta; settings: in vivo
[30] = Drug uptake in awake rhesus monkey brain pons after 75 mins postinjection; assay type: ADME, organism-based, Macaca mulatta; settings: in vivo, 1.25 h
[31] = Drug uptake in awake rhesus monkey brain midbrain after 7.5 mins postinjection; assay type: ADME, organism-based, Macaca mulatta; settings: in vivo, 0.125 h
[32] = Drug uptake in awake rhesus monkey brain midbrain after 25 mins postinjection; assay type: ADME, organism-based, Macaca mulatta; settings: in vivo
[33] = Drug uptake in awake rhesus monkey brain midbrain after 35 mins postinjection; assay type: ADME, organism-based, Macaca mulatta; settings: in vivo
[34] = Drug uptake in awake rhesus monkey brain midbrain after 55 mins postinjection; assay type: ADME, organism-based, Macaca mulatta; settings: in vivo
[35] = Drug uptake in awake rhesus monkey brain midbrain after 85 mins postinjection; assay type: ADME, organism-based, Macaca mulatta; settings: in vivo
Pons [36] = assay: Drug uptake in anesthetized cynomolgus monkey brain pons after 182.5 mins postinjection; assay type: ADME, organism-based, Macaca fascicularis; settings: in vivo
Pons [37] = assay: Drug uptake in anesthetized cynomolgus monkey brain pons after 187.5 mins postinjection; assay type: ADME, organism-based, Macaca fascicularis; settings: in vivo, 3.125 h
Pons [38] = assay: Drug uptake in anesthetized cynomolgus monkey brain pons after 192.5 mins postinjection; assay type: ADME, organism-based, Macaca fascicularis; settings: in vivo
Pons [39] = assay: Drug uptake in anesthetized cynomolgus monkey brain pons after 197.5 mins postinjection; assay type: ADME, organism-based, Macaca fascicularis; settings: in vivo
Pons [40] = assay: Drug uptake in anesthetized cynomolgus monkey brain pons after 202.5 mins postinjection; assay type: ADME, organism-based, Macaca fascicularis; settings: in vivo, 3.375 h
Pons [41] = assay: Drug uptake in anesthetized cynomolgus monkey brain pons after 207.5 mins postinjection; assay type: ADME, organism-based, Macaca fascicularis; settings: in vivo
[42] = Ratio of drug uptake in putamen to cerebellum in awake rhesus monkey after 45 mins postinjection; assay type: ADME, organism-based, Macaca mulatta; settings: in vivo, 0.75 h
[43] = Ratio of drug uptake in caudate to cerebellum in awake rhesus monkey after 25 mins postinjection; assay type: ADME, organism-based, Macaca mulatta; settings: in vivo
Medulla [44] = assay: Drug uptake in anesthetized cynomolgus monkey brain medulla after 182.5 mins postinjection; assay type: ADME, organism-based, Macaca fascicularis; settings: in vivo
Medulla [45] = assay: Drug uptake in anesthetized cynomolgus monkey brain medulla after 187.5 mins postinjection; assay type: ADME, organism-based, Macaca fascicularis; settings: in vivo, 3.125 h
[46] = Drug uptake in awake rhesus monkey brain putamen after 65 mins postinjection; assay type: ADME, organism-based, Macaca mulatta; settings: in vivo
[47] = Drug uptake in awake rhesus monkey brain caudate after 4.5 mins postinjection; assay type: ADME, organism-based, Macaca mulatta, Caudate nucleus; settings: in vivo, 0.075 h
[48] = Drug uptake in awake rhesus monkey brain caudate after 10.5 mins postinjection; assay type: ADME, organism-based, Macaca mulatta, Caudate nucleus; settings: in vivo, 0.175 h
[49] = Drug uptake in awake rhesus monkey brain caudate after 13.5 mins postinjection; assay type: ADME, organism-based, Macaca mulatta, Caudate nucleus; settings: in vivo, 0.225 h
[50] = Drug uptake in awake rhesus monkey brain caudate after 55 mins postinjection; assay type: ADME, organism-based, Macaca mulatta, Caudate nucleus; settings: in vivo
[51] = Drug uptake in awake rhesus monkey brain caudate after 85 mins postinjection; assay type: ADME, organism-based, Macaca mulatta, Caudate nucleus; settings: in vivo
[52] = Drug uptake in awake rhesus monkey brain caudate after 95 mins postinjection; assay type: ADME, organism-based, Macaca mulatta, Caudate nucleus; settings: in vivo
[53] = Ratio of drug uptake in pons to cerebellum in awake rhesus monkey after 7.5 mins postinjection; assay type: ADME, organism-based, Macaca mulatta; settings: in vivo, 0.125 h
Medulla [54] = assay: Drug uptake in anesthetized cynomolgus monkey brain medulla after 192.5 mins postinjection; assay type: ADME, organism-based, Macaca fascicularis; settings: in vivo
[55] = Drug uptake in anesthetized cynomolgus monkey brain cerebellum after 182.5 mins postinjection; assay type: ADME, organism-based, Macaca fascicularis; settings: in vivo
[56] = Drug uptake in anesthetized cynomolgus monkey brain cerebellum after 192.5 mins postinjection; assay type: ADME, organism-based, Macaca fascicularis; settings: in vivo
[57] = Drug uptake in anesthetized cynomolgus monkey brain cerebellum after 197.5 mins postinjection; assay type: ADME, organism-based, Macaca fascicularis; settings: in vivo
[58] = Drug uptake in anesthetized cynomolgus monkey brain cerebellum after 202.5 mins postinjection; assay type: ADME, organism-based, Macaca fascicularis; settings: in vivo, 3.375 h
[59] = Drug uptake in anesthetized cynomolgus monkey brain cerebellum after 207.5 mins postinjection; assay type: ADME, organism-based, Macaca fascicularis; settings: in vivo
[60] = Drug uptake in awake rhesus monkey brain thalamus after 65 mins postinjection; assay type: ADME, organism-based, Macaca mulatta; settings: in vivo
Caudate [61] = assay: Drug uptake in anesthetized cynomolgus monkey brain caudate after 182.5 mins postinjection; assay type: ADME, organism-based, Macaca fascicularis, Caudate nucleus; settings: in vivo
Caudate [62] = assay: Drug uptake in anesthetized cynomolgus monkey brain caudate after 202.5 mins postinjection; assay type: ADME, organism-based, Macaca fascicularis, Caudate nucleus; settings: in vivo, 3.375 h
Caudate [63] = assay: Drug uptake in anesthetized cynomolgus monkey brain caudate after 207.5 mins postinjection; assay type: ADME, organism-based, Macaca fascicularis, Caudate nucleus; settings: in vivo
[64] = Ratio of drug uptake in frontal lobe to cerebellum in awake rhesus monkey after 35 mins postinjection; assay type: ADME, organism-based, Macaca mulatta; settings: in vivo
[65] = Ratio of drug uptake in medulla to cerebellum in awake rhesus monkey after 4.5 mins postinjection; assay type: ADME, organism-based, Macaca mulatta; settings: in vivo, 0.075 h
[66] = Drug uptake in awake rhesus monkey brain cerebellum after 25 mins postinjection; assay type: ADME, organism-based, Macaca mulatta; settings: in vivo
[67] = Ratio of drug uptake in midbrain to cerebellum in awake rhesus monkey after 85 mins postinjection; assay type: ADME, organism-based, Macaca mulatta; settings: in vivo
Thalamus [68] = assay: Drug uptake in anesthetized cynomolgus monkey brain thalamus after 182.5 mins postinjection; assay type: ADME, organism-based, Macaca fascicularis; settings: in vivo
Thalamus [69] = assay: Drug uptake in anesthetized cynomolgus monkey brain thalamus after 187.5 mins postinjection; assay type: ADME, organism-based, Macaca fascicularis; settings: in vivo, 3.125 h
Thalamus [70] = assay: Drug uptake in anesthetized cynomolgus monkey brain thalamus after 197.5 mins postinjection; assay type: ADME, organism-based, Macaca fascicularis; settings: in vivo
Thalamus [71] = assay: Drug uptake in anesthetized cynomolgus monkey brain thalamus after 207.5 mins postinjection; assay type: ADME, organism-based, Macaca fascicularis; settings: in vivo

O=C(OCC[18F])C1C2CCC(CC1c1cccc(/C=C\Br)c1)N2 (stereo not drawn)
Ratio [1]: 1.3 | Drug uptake [2]: 2.68 | Drug uptake [3]: 2.29 | Ratio [4]: 1.8 | Drug uptake [5]: 3.61 | Drug uptake [6]: 2.68 | Drug uptake [7]: 2.35

O=C(OCC[18F])C1C2CCC(CC1c1cccc(/C=C\I)c1)N2 (stereo not drawn)
Drug uptake [8]: 1.39 | Drug uptake [9]: 1.65 | Drug uptake (Putamen [10]): 2.78 | Drug uptake (Putamen [11]): 2.77 | Drug uptake (Putamen [12]): 2.67 | Drug uptake (Putamen [13]): 2.63 | Drug uptake (Putamen [14]): 2.58 | Drug uptake [15]: 0.08 | Drug uptake [16]: 0.11 | Drug uptake [17]: 0.11 | Drug uptake [18]: 0.09 | Drug uptake (Midbrain [19]): 3.4 | Drug uptake (Midbrain [20]): 3.37 | Drug uptake (Midbrain [21]): 3.24 | Drug uptake (Midbrain [22]): 3.15 | Drug uptake (Midbrain [23]): 3.17 | Drug uptake [24]: 0.12 | Drug uptake [25]: 0.11 | Drug uptake [26]: 0.11 | Drug uptake [27]: 0.08 | Drug uptake [28]: 0.12 | Drug uptake [29]: 0.14 | Drug uptake [30]: 0.14 | Drug uptake [31]: 0.08 | Drug uptake [32]: 0.13 | Drug uptake [33]: 0.14 | Drug uptake [34]: 0.16 | Drug uptake [35]: 0.16 | Drug uptake (Pons [36]): 2.17 | Drug uptake (Pons [37]): 2.31 | Drug uptake (Pons [38]): 2.14 | Drug uptake (Pons [39]): 2.25 | Drug uptake (Pons [40]): 2.25 | Drug uptake (Pons [41]): 2.19 | Ratio [42]: 1.5 | Ratio [43]: 1.2 | Drug uptake (Medulla [44]): 2.68 | Drug uptake (Medulla [45]): 2.64 | Drug uptake [46]: 0.16 | Drug uptake [47]: 0.06 | Drug uptake [48]: 0.1 | Drug uptake [49]: 0.09 | Drug uptake [50]: 0.15 | Drug uptake [51]: 0.14 | Drug uptake [52]: 0.14 | Ratio [53]: 1 | Drug uptake (Medulla [54]): 2.52 | Drug uptake [55]: 1.52 | Drug uptake [56]: 1.49 | Drug uptake [57]: 1.41 | Drug uptake [58]: 1.43 | Drug uptake [59]: 1.4 | Drug uptake [60]: 0.17 | Drug uptake (Caudate [61]): 2.31 | Drug uptake (Caudate [62]): 2.21 | Drug uptake (Caudate [63]): 2.16 | Ratio [64]: 1 | Ratio [65]: 1.1 | Drug uptake [66]: 0.11 | Ratio [67]: 1.6 | Drug uptake (Thalamus [68]): 2.74 | Drug uptake (Thalamus [69]): 2.65 | Drug uptake (Thalamus [70]): 2.46 | Drug uptake (Thalamus [71]): 2.43

O=C(OCCC[18F])C1C2CCC(CC1c1cccc(/C=C\I)c1)N2 (stereo not drawn)
Ratio [1]: 1 | Drug uptake [2]: 3.6 | Drug uptake [3]: 2.03 | Ratio [4]: 1.3 | Drug uptake [5]: 4.31 | Drug uptake [6]: 2.79 | Drug uptake [7]: 2.4
